Measured values taken from patent US20100204277A1, “Compositions and Methods for Controlling Infestation” (HATCHTECH PTY LTD., priority 2007, published 2010).

Columns and labels:
[1] = test system: proteases in louse egg shell washings (ESW); assay: Gelatine substrate SDS-PAGE of louse egg shell washings incubated with protease inhibitors; type: biochemical, Pediculus humanus humanus
Experimental: Within 12 hours of hatching 50 body lice eggs (Pediculus humanus humanus) were removed from the hair and placed in a 1 mL eppendorf tube. 20 μL of distilled water was added to the unhatched eggs and the preparation incubated for 30 minutes at 32° C. The 20 μL was recovered, freeze dried and stored at −70° C. This sample was referred to as sample 1. A number of other samples were also collected as described. Sample 2 was collected by removing the unhatched louse eggs from four hairs that were approximately 3 cm long, cutting the hair into 0.5 cm lengths, and placing them into a microfuge tube containing 20 μl of distilled water and incubating at 32° C. for 30 minutes. Sample 3 was collected as for sample 2, but the hair was placed in a tube containing 10 mL of 1% sodium hypochlorite for 1 minute followed by five 1 minute washes in 25 mL of distilled water to remove the sodium hypochlorite before being incubated in a microfuge tube containing 20 μl of distilled water and incubated as for Sample 2. Sample 4 was collected from unhatched eggs which were removed from the hair and washed with 1% sodium hypochlorite and incubated in 20 μl of distilled water in the same manner as the hair in Sample 3. Finally, Sample 5 was collected from eggs that were within 24 hrs of hatching which were washed with 1% sodium hypochlorite, then returned to the incubator at 32° C. until they hatched, the empty egg shells collected 0-2 hrs after egg-hatching, placed in a 1 mL microfuge tube containing 20 μl of distilled water and incubated as for Samples 1-4. For all samples 1-5 the 20 μl of fluid was recovered, freeze-dried and stored at −70° C. The washings recovered from these freshly hatched egg shells are referred to as egg-shell-washings (ESWs). In order to look for the presence of proteases present in these different samples, the freeze-dried samples were resuspended in 15 μL of non-reducing SDS sample buffer, centrifuged at 10,000 g for 2 minutes and the entire 15 μL loaded on to 10% gelatine substrate SDS-PAGE gels. Gels were run at 4° C. for 10 minutes at 10 mA followed by a further 25 minutes at 15 mA per gel. They were then incubated for 2×20 minutes in a 2.5% Triton-X 100 solution followed by a three hour incubation in 0.1M Tris/HCl containing 1 mM CaCl2 pH 8.0. Activity was detected as clear areas on the gel the result of protease activity degrading the gelatine within the gel.
Protease activity in the ESWs from louse eggs was also examined using two-dimensional gel electrophoresis. It was necessary to collect large numbers of freshly hatched egg shells. Following egglaying onto pieces of cloth, adult female lice were removed and the cloth with the eggs washed with 1% sodium hypochlorite as for collection of ESWs. The eggs were then returned to the incubator and permitted to hatch. Typically 100 to 500 hatched egg shells were collected (0-2 hours post hatching), placed in a microfuge tube containing 200 μl of distilled water, incubated and sample treated as described above. For analysis, ESWs were resuspended in rehydration buffer (8 M Urea, 2% 3-[(3-cholamidopropyl) dimethylammonio]-1-propanesulfonate 2% Immobilised pH gradient buffer 3-10 (Amersham Phamacia Biotech, Uppsala, Sweden)) and used to rehydrate 7 cm Immobiline Dry strips pH 3-10 (Amersham Bioscience) overnight. Strips were transferred to the Multiphor II (Pharmacia, Sweden) apparatus, electrophoresed in the first dimension at 200 V for 1 min, increasing to 3,500 V over the next 90 min followed by 65 min at 3,500 V, equilibrated (6 M urea, 30% glycerol, 50 mM Tris pH 8.8 and 2% SDS) and then run on a 10% SDS-PAGE gel containing 0.1% gelatin for the second dimension. The gel was then run and developed as previously described.
10% SDS-PAGE gelatine substrate gels were loaded with freeze dried egg shell washings from 100 lice eggs that had been resuspended in 50 μL of non-reducing sample buffer with samples run at 10 μL per lane. […]

head lice egg = assay: Head lice egg hatching, time course; type: in vivo, Pediculus humanus capitus; settings: 10 mM, 10 minutes
Experimental: Tests were carried out to determine if metal chelating agent and metalloprotease inhibitor 1,10-phenanthroline could inhibit head lice egg (Pediculus humanus capitus) hatching as opposed to body lice. Head lice eggs were obtained by placing groups of both 1-2 adult male and 6-8 adult female head lice in separate wells in a 24 well petri dish containing cotton cloth. The petri dish was transferred to a humid incubator at 32° C., 70% RH for 12 hours to permit the female lice to lay their eggs. After 12 hours, all adult lice were removed from the petri dish wells and a series of time-course experiments conducted. A group of eggs (24 hr old) was treated for 10 minutes with 200 μL of a 10 mM solution of 1,10-phenanthroline. A control (ie no inhibitor treatment) group of eggs was also included. The eggs were removed from the inhibitor, blotted dry on tissue paper, placed at 32° C., 70% RH and left to hatch. A second group of eggs, (48 hours old) were treated as previously described and also left to hatch. This process was repeated at 24 hour intervals on head lice eggs up to 120 hours post laying.

[2] = test system: Lice (L) / Plutella (P) eggs; type: in vivo; settings: 10 mM; Lice/Plutella: L P
Experimental: Log LD50 is obtained from the observed percentage ovicidal activity by conversion using a modified logit transformation. The observed percentage ovicidal activity values were transformed using the equation:
The additional 5% was used to allow a number to be calculated when 0% and 100% activity was observed. The BA is a crude correction to the log of the concentration at which the compounds were tested. Correlation between BA values and LD50 allows the calculation of Log LD50. […] A number of metal chelating agents with potential for inhibiting the remodelling events associated with thin membrane egg hatching in lice were analysed by comparing their percentage ovicidal activity in lice at different concentrations, their logit calculated pLD50, Pref pLD50, Activity class, clogP and molar refractivity were determined.

lice eggs = assay: Standard lice egg-hatching assay with commercial head lice products; type: in vivo; settings: Example 10; products per manufacturer's recommendations, 1,10-phenanthroline 10 mM
Experimental: The ovicidal properties of three major commercial head lice products were evaluated in the standard lice egg-hatching assay. The 3 commercial head lice products were as follows:
These three products were tested according to manufacturer's recommendations. Groups of eggs (24 hours old) were treated with the different products according to manufacturer's recommendations for the appropriate period of time (5-10 minutes) followed by a rinse for 1-2 minutes in 32° C. water. A positive controls (10 mM 1,10-phenanthroline) and two negative controls (no treatment and 20% Methanol) were also incorporated. Post exposure to the different products, the eggs were rinsed with warm water at 32° C. before being blotted dry on tissue paper and placed at 32° C., 70% RH and left to hatch. A second group of eggs, (48 hours old) were treated as previously described and also left to hatch. This process was repeated at 24 hour intervals on head lice eggs up to 120 hours post laying.
The ovicidal properties of two major commercial head lice products were evaluated in the standard lice egg-hatching assay. The 2 commercial head lice products were as follows:
These two products were tested according to manufacturer's recommendations. […]

[3] = test system: Helicoverpa armigera eggs; assay: Helicoverpa egg hatch; settings: 10 mM; Example 16; exposed 2-10 seconds; day 6 post laying
Experimental: A range of concentrations were made up in water and the eggs placed in the solutions for approximately 2-10 seconds. The eggs which had been laid on cloth were then blotted dry and placed in an incubator at 26° C. for 3-4 days until hatch. Hatch rates were then assessed compared to a water only treated control (FIG. 5).
The compound was dissolved in 100% diethoxyglycol and diluted to a final concentration of 1% in water.
Several hundred Helicoverpa armigera eggs (Tatura×Toowoomba strains) were collected, that had been laid on fine mesh cloth over a 24 hour period.
Batches of Helicoverpa eggs were exposed to a specific inhibitor solution for between 2-10 seconds the excess solution drained by blotting with dry tissue paper. The egg masses were then placed in a humid box at 25 degrees until egg hatch. Control eggs were exposed to absolute methanol as described above. At day 6 post laying the eggs were assessed from the different treatments and the percentage of egg hatch determined relative to the control as shown in Table 12.
Batches of Helicoverpa eggs were then exposed to a specific inhibitor solution for between 2-10 seconds the excess solution drained by blotting with dry tissue paper. The egg masses were then placed in a humid box at 25° C. until egg hatch. Control eggs were exposed to absolute methanol as described above. At day 6 post laying the eggs were assessed from the different treatments and the percentage of egg hatch determined relative to the control as shown in Table 13.

[4] = test system: Plutella xylostella eggs (Waite strain); assay: Plutella xylostella egg hatch (egg dip); settings: 10 mM; Example 12; dip 2-10 seconds; day 6 post laying
Experimental: Several hundred Plutella xylostella eggs (Waite strain) were collected, that had been laid over a 24 hour period.
The egg masses were then placed in a humid box at 25° C. until egg hatch. Control eggs were exposed to absolute methanol as described above. At day 6 post laying the eggs were assessed from the different treatments and the percentage of egg hatch determined relative to the control as shown in Table 9.
Batches of Plutella eggs that were laid on either fine cloth or parafilm were dipped in a specific inhibitor solution for between 2-10 seconds, the excess solution was drained by blotting with dry tissue paper. The egg masses were then placed in a humid box at 25 degrees until egg hatch. Control eggs were exposed to absolute methanol as described above or not treated. At day 6 post laying the eggs were assessed from the different treatments and the percentage of egg hatch determined relative to the controls as shown in Tables 10 and 11.
The egg masses were then placed in a humid box at 25 degrees until egg hatch. Control eggs were exposed to absolute ethanol as described above. On day 6 post laying the eggs were assessed from the different treatments and the percentage of egg hatch determined relative to the control.

[5] = test system: body lice eggs (clothing lice); assay: In vitro lice egg hatching bioassay (standard lice assay, time course)
Experimental: Male and female clothing lice were fed on a rabbit as previously described. Female and male adult lice in a ratio of 3:1 were then transferred to a clean petri dish containing nylon cloth approximately 3×3 cm^2 and left for 12 hours at 32° C. During this period the female lice laid their eggs and attached them to the woven cloth. All lice would then be removed and the eggs permitted to incubate for the following 5 days. On Day 6 the cloth containing the eggs would be placed for 1 minute in a 1% sodium hypochlorite solution and then washed extensively. The eggs would then progress through to their final stages of development and hatch.
Lice eggs were laid onto cloth as described above. Five days post laying the cloth containing lice eggs was removed and immersed in a 1% sodium hypochlorite solution before being washed extensively in distilled water and blotted dry on tissue paper. Lice eggs were counted under a dissecting microscope and the cloth cut into batches of between 10-30 eggs with 3-5 replicates used per treatment. The cloth containing lice eggs was then immersed in a protease inhibitor solution for a period of 10 minutes, placed on tissue paper for 1 minute to dry before being transferred to a clean petri dish and incubated until hatching. […] Specifically a stock solution was prepared as follows: 1,10-phenanthroline (200 mM in methanol). In addition, the equivalent levels of the solvent were added to the non-inhibitor containing controls eggs to test for any buffer alone effects. Percentage hatch inhibition was calculated as the percentage reduction in egg hatch compared to the untreated control. The untreated control was assigned a percentage hatch of 100%.
A series of time-course experiments was conducted as a means of assessing inhibitors of lice egg hatching. […]
An experiment was undertaken to determine whether washing of the eggs would effect the inhibitory activity of 1,10-phenanthroline (Table 3). […] Percentage hatch inhibition was calculated as the percentage reduction in egg hatch compared to the untreated control. […]

c1cnc2c(c1)ccc1cccnc12 [1,10-phenanthroline]
protease activity of egg shell washings, two dimensional gel ([1]; gel incubated with 10 mM 1,10-phenanthroline): general reduction in protease activity in the 25-30 kDa region and a clear reduction in the proteases present around the 50 kDa region and above 75 kDa | protease activity of egg shell washings compared to untreated controls ([1]; gelatine SDS-PAGE strips, EDTA 10 mM, 1,10-phenanthroline 10 mM, PMSF 5 mM, E-64 10 μM, Pepstatin 5 μM, 3 hrs at 37° C.): reduction in protease activity | egg hatching in head lice (head lice egg): significantly inhibit | Activity class 0 = inactive 1 = low 2 = med 3 = high [2]: 1 (a pLD50 value between 2 and 3 is considered weakly active (Class 1)) | ovicidal activity across the different stages of lice egg hatching (lice eggs): highly effective | % Inhibition of egg hatch relative to control [3]: able to inhibit | % Inhibition of egg hatch relative to control [4]: significantly inhibit | inhibition of lice egg hatching following washing of eggs in water ([5]; 10 mM, 10 minutes, washed 1 minute): still highly efficacious | inhibition of egg hatching in lice ([5]; 10 mM, eggs treated 5 days post laying, 10 minutes): significantly inhibited | egg hatching in lice ([5]; 2.5-10 mM, all time points examined): significantly inhibit
